Reference: ChEMBL document CHEMBL1131557 (Bioorg Med Chem Lett, 1998)

Columns and labels:
Histamine H3 receptor = Histamine H3 receptor (Cavia porcellus, UniProt Q9JI35); assay: Inhibition of [3H]N-alpha-methylhistamine binding to guinea pig brain Histamine H3 receptor
Histamine H1 receptor = Histamine H1 receptor (Cavia porcellus, UniProt P31389); assay: Binding affinity to H-1 receptor was determined in guinea pig brain tissue using [3H]- […] ligand
[1] = molecular target: Histamine H3 receptor (Cavia porcellus) (UniProt Q9JI35); conditions: Ileum
Chain of Histamine H3 receptor (Cavia porcellus) (Q9JI35 whole entry): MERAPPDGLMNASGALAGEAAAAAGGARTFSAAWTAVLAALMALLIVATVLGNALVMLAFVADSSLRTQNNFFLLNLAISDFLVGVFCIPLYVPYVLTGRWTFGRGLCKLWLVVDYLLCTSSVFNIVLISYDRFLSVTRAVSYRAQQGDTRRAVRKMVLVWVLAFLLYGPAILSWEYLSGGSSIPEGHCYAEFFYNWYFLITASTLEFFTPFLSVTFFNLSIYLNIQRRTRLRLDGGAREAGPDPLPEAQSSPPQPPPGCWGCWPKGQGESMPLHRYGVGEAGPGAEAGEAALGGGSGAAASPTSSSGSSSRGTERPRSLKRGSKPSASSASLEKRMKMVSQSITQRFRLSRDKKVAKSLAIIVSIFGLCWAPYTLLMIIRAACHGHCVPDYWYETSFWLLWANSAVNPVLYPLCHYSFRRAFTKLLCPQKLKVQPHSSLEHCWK
Description: (§1) In vitro effective concentration for H-3-mediated contraction of guinea pig ileum

[2] = molecular target: Histamine H1 receptor (Cavia porcellus) (UniProt P31389); conditions: Ileum
Chain of Histamine H1 receptor (Cavia porcellus) (P31389 whole entry): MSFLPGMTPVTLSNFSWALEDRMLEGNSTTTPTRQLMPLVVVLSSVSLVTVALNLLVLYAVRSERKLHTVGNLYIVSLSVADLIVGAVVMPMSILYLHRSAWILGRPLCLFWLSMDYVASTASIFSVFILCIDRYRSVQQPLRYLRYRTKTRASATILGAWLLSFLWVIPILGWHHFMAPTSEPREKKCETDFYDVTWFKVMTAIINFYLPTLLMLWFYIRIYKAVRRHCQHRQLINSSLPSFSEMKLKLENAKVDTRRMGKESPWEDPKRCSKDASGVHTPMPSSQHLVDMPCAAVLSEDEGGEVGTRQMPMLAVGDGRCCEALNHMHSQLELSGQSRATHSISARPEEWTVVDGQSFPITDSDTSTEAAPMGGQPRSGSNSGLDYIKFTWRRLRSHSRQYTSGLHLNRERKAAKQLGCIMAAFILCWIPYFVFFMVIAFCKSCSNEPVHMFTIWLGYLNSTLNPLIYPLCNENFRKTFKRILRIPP
Description: In vitro effective concentration for H-1-mediated contraction of guinea pig ileum

[3] = molecular target: Histamine H1 receptor (Cavia porcellus) (UniProt P31389); assay: H1-mediated bronchoconstrictor effect after intravenous administration in anesthetized guinea pig; format: functional, organism-based; conditions: Lung
[4] = molecular target: Histamine H1 receptor (Cavia porcellus) (UniProt P31389); conditions: Ileum; remark: listed apart in the source
Description: In vitro effective concentration for H1-mediated contraction of guinea pig ileum

[5] = molecular target: Histamine H3 receptor (Cavia porcellus) (UniProt Q9JI35); conditions: Ileum; remark: listed apart in the source
Description: as §1

Chain of Histamine H3 receptor (Q9JI35 whole entry): as the sequence (Q9JI35 whole entry) above
Chain of Histamine H1 receptor (P31389 whole entry): as the sequence (P31389 whole entry) above

c1ccc(C[C@H]2NCC[C@@H]2c2c[nH]cn2)cc1
Ki (Histamine H3 receptor): > 2 µM

C[C@H]1CNC[C@H]1c1c[nH]cn1
Ki (Histamine H3 receptor): 0.003 µM

C[C@H]1CNC[C@@H]1c1c[nH]cn1
Ki (Histamine H1 receptor): > 10 µM
Ki (Histamine H3 receptor): 0.0023 µM
pD2 [1]: 7.5
pD2 [2]: < 4

CC[C@H]1NCC[C@@H]1c1cnc[nH]1
Ki (Histamine H3 receptor): 0.15 µM

C[C@]1(c2c[nH]cn2)CCNC1
Ki (Histamine H3 receptor): 0.17 µM

C[C@@H]1NCC[C@@H]1c1c[nH]cn1
Ki (Histamine H3 receptor): 0.059 µM

c1nc(C2CCNC2)c[nH]1 (stereo not given)
ED50 [3]: 0.3 mg/kg
Ki (Histamine H3 receptor): 0.002 µM

C[C@H]1C[C@H](c2cnc[nH]2)CN1
Ki (Histamine H3 receptor): 0.076 µM

C[C@@H]1CNC[C@H]1c1cnc[nH]1
Ki (Histamine H3 receptor): 0.005 µM

C[C@@H](N)Cc1c[nH]cn1
pD2 [4]: 5.4
Ki (Histamine H1 receptor): > 10 µM
pD2 [5]: 8.2

C[C@H]1NCCC[C@@H]1c1cnc[nH]1
Ki (Histamine H3 receptor): > 2 µM

C[C@H]1NCC[C@@H]1c1c[nH]cn1
Ki (Histamine H3 receptor): 0.003 µM

C[C@H]1NC[C@@H]1c1c[nH]cn1
ED50 [3]: > 0.3 mg/kg
Ki (Histamine H3 receptor): 0.007 µM
